As usually defined, the IC50 is the midpoint of a concentration-inhibition curve. Low readings indicate greater potency, high ones weaker potency.

The assay concerns the target Tsr (E. coli serine chemoreceptor) (Escherichia coli, UniProt P02942). Put plainly: in vivo FRET kinase assay. It is filed as cell-based.

Molecules are shown by their SMILES.

Tsr (E. coli serine chemoreceptor), sequence (P02942 whole entry): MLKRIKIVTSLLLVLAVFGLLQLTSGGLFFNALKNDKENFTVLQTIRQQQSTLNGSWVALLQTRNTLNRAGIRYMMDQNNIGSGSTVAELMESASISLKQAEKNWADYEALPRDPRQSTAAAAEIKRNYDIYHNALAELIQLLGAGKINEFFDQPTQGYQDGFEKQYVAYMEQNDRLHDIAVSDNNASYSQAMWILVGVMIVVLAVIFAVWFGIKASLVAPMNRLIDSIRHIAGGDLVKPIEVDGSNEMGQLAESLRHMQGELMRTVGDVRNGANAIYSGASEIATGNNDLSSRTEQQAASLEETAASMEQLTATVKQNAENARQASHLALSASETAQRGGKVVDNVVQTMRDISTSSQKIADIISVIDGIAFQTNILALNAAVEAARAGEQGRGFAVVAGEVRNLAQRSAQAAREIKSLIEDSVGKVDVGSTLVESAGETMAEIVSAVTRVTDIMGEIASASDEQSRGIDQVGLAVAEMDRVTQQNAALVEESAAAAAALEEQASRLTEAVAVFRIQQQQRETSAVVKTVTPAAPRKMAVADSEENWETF

As for `N[C@@H](CO)C(=O)O` [serine], 18 µM corresponded to half-maximal inhibition (IC50).
